Test [1] in a line: Cell growth assay (WST-8) (Compounds B1-B278). It counts as cell-based. To be noted: 96 h; T47D cell line; WST-8, 4 days; read-out: Cell Growth Inhibition in T47D cell line IC50. In outline:
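Read-out is WST-8 absorbance at 450 nm (2.5 h, 37° C) as a fraction of vehicle control, from three separate repeats. Compound exposure lasted 4 days, starting one day after plating 1500 cells/well.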
In general terms: Tetrazolium dyes change colour on reduction, which living cells bring about.

The next test has as its target ER (Homo sapiens (Human), UniProt P03372). Nature of the test: In-cell western blot analysis of relative ER percentage (Compounds B1-B278). It counts as cell-based. Particulars: ER degradation, 16 hours, read-out: ICW DC50. In outline: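 In-cell western: after 16 h compound exposure (0.5% DMSO final), fixed and permeabilized cells are probed with anti-ER plus anti-GAPDH and near-infrared secondaries. Relative ER percentage compares treated wells against untreated and DMSO wells taken as 100%; seeding 40,000 or 10,000 cells/well.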

The structures appear in SMILES notation. Bounds are passed on as bounds.

ER, sequence (P03372 whole entry): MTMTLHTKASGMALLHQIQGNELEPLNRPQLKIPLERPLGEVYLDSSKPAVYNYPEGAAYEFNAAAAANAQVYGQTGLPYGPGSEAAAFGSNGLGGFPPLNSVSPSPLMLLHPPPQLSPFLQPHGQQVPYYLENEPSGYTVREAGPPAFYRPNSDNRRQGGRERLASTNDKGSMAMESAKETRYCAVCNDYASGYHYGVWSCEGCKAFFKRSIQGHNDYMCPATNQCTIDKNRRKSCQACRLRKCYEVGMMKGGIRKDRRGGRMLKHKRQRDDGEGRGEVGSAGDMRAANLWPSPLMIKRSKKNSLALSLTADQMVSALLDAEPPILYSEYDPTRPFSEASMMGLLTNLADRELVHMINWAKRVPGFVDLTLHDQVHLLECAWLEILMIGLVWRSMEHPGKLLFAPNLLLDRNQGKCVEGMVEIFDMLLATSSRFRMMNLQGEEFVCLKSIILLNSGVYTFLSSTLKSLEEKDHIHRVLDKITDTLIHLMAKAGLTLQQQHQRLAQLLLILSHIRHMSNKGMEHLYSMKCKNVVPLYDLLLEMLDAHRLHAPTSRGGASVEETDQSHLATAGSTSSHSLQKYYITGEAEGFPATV

As for `C[C@@H]1Cc2c([nH]c3ccccc23)[C@@H](c2ccc(N3CCC4(CC3)CC(CN3CCN5c6ccc7c(c6OC[C@H]5C3)CN(C3CCC(=O)NC3=O)C7=O)C4)nc2)N1CC(F)F` (stereo partly drawn) [Compound B169, 3-((R)-7-((7-(5-((1R,3R)-2-(2,2-difluoroethyl)-3-methyl-2,3,4,9-tetrahydro-1H-pyrido[3,4-b]indol-1-yl)pyridin-2-yl)-7-azaspiro[3.5]nonan-2-yl)methyl)-1-oxo-1,3,5,5a,6,7,8,9-octahydro-2H-pyrazino[1′,2′:4,5][1,4]oxazino[2,3-e]isoindol-2-yl)piperidine-2,6-dione], the IC50 in test [1] was 0.001 to 0.01 µM. Further, the DC50 at ER was more than 0.1 µM.

Take `COc1cc(N2CCC3(CCN(C(=O)CN4Cc5cc6c(cc5C4)C(=O)N(C4CCC(=O)NC4=O)C6=O)CC3)CC2)ccc1[C@@H]1c2[nH]c3ccccc3c2C[C@@H](C)N1CC(C)(C)F` (stereo partly drawn) [Compound B170, 2-(2,6-dioxopiperidin-3-yl)-6-(2-(9-(4-((1R,3R)-2-(2-fluoro-2-methylpropyl)-3-methyl-2,3,4,9-tetrahydro-1H-pyrido[3,4-b]indol-1-yl)-3-methoxyphenyl)-3,9-diazaspiro[5.5]undecan-3-yl)-2-oxoethyl)-6,7-dihydropyrrolo[3,4-f]isoindole-1,3(2H,5H)-dione]: the IC50 in test [1] lay within 0.001 to 0.01 µM. The DC50 on ER is more than 0.1 µM.

As to `C[C@@H]1Cc2c([nH]c3ccccc23)[C@@H](c2cnc(N3CCC4(CC3)CC(CN3CCN5c6cc7c(cc6OC[C@@H]5C3)C(=O)N(C3CCC(=O)NC3=O)C7)CO4)nc2)N1CC(F)(F)CO` (stereo partly drawn) [Compound B171, 3-((4aS)-3-((8-(5-((1R,3R)-2-(2,2-difluoro-3-hydroxypropyl)-3-methyl-2,3,4,9-tetrahydro-1H-pyrido[3,4-b]indol-1-yl)pyrimidin-2-yl)-1-oxa-8-azaspiro[4.5]dccan-3-yl)methyl)-8-oxo-1,2,3,4,4a,5,8,10-octahydro-9H-pyrazino[1′,2′:4,5][1,4]oxazino[2,3-f]isoindol-9-yl)piperidine-2,6-dione], the IC50 in test [1] is more than 0.01 µM. On ER, the DC50 was less than 0.01 µM.

`C[C@@H]1Cc2c([nH]c3ccccc23)[C@@H](c2cnc(N3CCC4(CC3)CC(CN3CCN5c6ccc7c(c6OC[C@H]5C3)CN(C3CCC(=O)NC3=O)C7=O)CO4)nc2)N1CC(F)(F)CO` (stereo partly drawn) [Compound B172, 3-((5aR)-7-((8-(5-((1R,3R)-2-(2,2-difluoro-3-hydroxypropyl)-3-methyl-2,3,4,9-tetrahydro-1H-pyrido[3,4-b]indol-1-yl)pyrimidin-2-yl)-1-oxa-8-azaspiro[4.5]decan-3-yl)methyl)-1-oxo-1,3,5,5a,6,7,8,9-octahydro-2H-pyrazino[1′,2′:4,5][1,4]oxazino[2,3-e]isoindol-2-yl)piperidine-2,6-dione]: the IC50 in test [1] was less than 0.001 µM. Besides, the DC50 on ER was more than 0.1 µM.

`C[C@@H]1Cc2c([nH]c3ccccc23)[C@@H](c2c(F)cc(N3CCC(CN4CCN5c6c(ccc7c6CN(C6CCC(=O)NC6=O)C7=O)OC[C@@H]5C4)CC3)cc2F)N1CC(F)F` (stereo partly drawn) [Compound B173, 3-((S)-9-((1-(4-((1R,3R)-2-(2,2-difluoroethyl)-3-methyl-2,3,4,9-tetrahydro-1H-pyrido[3,4-b]indol-1-yl)-3,5-difluorophenyl)piperidin-4-yl)methyl)-3-oxo-1,3,7,7a,8,9,10,11-octahydro-2H-pyrazino[1′,2′:4,5][1,4]oxazino[3,2-e]isoindol-2-yl)piperidine-2,6-dione]: the IC50 in test [1] was less than 0.001 µM. For the same molecule, the DC50 at ER is more than 0.1 µM.

Consider `C[C@@H]1Cc2c([nH]c3ccccc23)[C@@H](c2c(F)cc(N3CCC4(CC3)CN(C(=O)CN3CCN5c6ccc7c(c6OC[C@H]5C3)CN(C3CCC(=O)NC3=O)C7=O)C4)cc2F)N1CC(F)F` (stereo partly drawn) [Compound B174, 3-((R)-7-(2-(7-(4-((1R,3R)-2-(2,2-difluoroethyl)-3-methyl-2,3,4,9-tetrahydro-1H-pyrido[3,4-b]indol-1-yl)-3,5-difluorophenyl)-2,7-diazaspiro[3.5]nonan-2-yl)-2-oxoethyl)-1-oxo-1,3,5,5a,6,7,8,9-octahydro-2H-pyrazino[1′,2′:4,5][1,4]oxazino[2,3-e]isoindol-2-yl)piperidine-2,6-dione], for which the IC50 in test [1] is less than 0.001 µM. Besides, the DC50 at ER is less than 0.01 µM.

For the molecule `C[C@@H]1Cc2c([nH]c3ccccc23)[C@@H](c2cnc(N3CCC4(CC3)CN(CC(=O)N3CCN5c6ccc7c(c6OC[C@H]5C3)CN(C3CCC(=O)NC3=O)C7=O)C4)nc2)N1CC(F)(F)F` (stereo partly drawn) [Compound B175, 3-((R)-7-(2-(7-(5-((1R,3R)-3-methyl-2-(2,2,2-trifluoroethyl)-2,3,4,9-tetrahydro-1H-pyrido[3,4-b]indol-1-yl)pyrimidin-2-yl)-2,7-diazaspiro[3.5]nonan-2-yl)acetyl)-1-oxo-1,3,5,5a,6,7,8,9-octahydro-2H-pyrazino[1′,2′:4,5][1,4]oxazino[2,3-e]isoindol-2-yl)piperidine-2,6-dione], the IC50 in test [1] is 0.001 to 0.01 µM. At ER, the DC50 was less than 0.01 µM.

Take `C[C@@H]1Cc2c([nH]c3ccccc23)[C@@H](c2cnc(N3CCC4(CC3)CN(C(=O)CN3CCN5c6ccc7c(c6OC[C@H]5C3)CN(C3CCC(=O)NC3=O)C7=O)C4)nc2)N1CC(F)F` (stereo partly drawn) [Compound B176, 3-((R)-7-(2-(7-(5-((1R,3R)-2-(2,2-difluoroethyl)-3-methyl-2,3,4,9-tetrahydro-1H-pyrido[3,4-b]indol-1-yl)pyrimidin-2-yl)-2,7-diazaspiro[3.5]nonan-2-yl)-2-oxoethyl)-1-oxo-1,3,5,5a,6,7,8,9-octahydro-2H-pyrazino[1′,2′:4,5][1,4]oxazino[2,3-e]isoindol-2-yl)piperidine-2,6-dione]: the IC50 in test [1] lay in the range of 0.001 to 0.01 µM. In addition, the DC50 on ER is less than 0.01 µM.

`C[C@@H]1Cc2c([nH]c3ccccc23)[C@@H](c2c(F)cc(N3CCC4(CC3)CN(CC(=O)N3CCN5c6ccc7c(c6OC[C@H]5C3)CN(C3CCC(=O)NC3=O)C7=O)C4)cc2F)N1CC(F)F` (stereo partly drawn) [Compound B177, 3-((R)-7-(2-(7-(4-((1R,3R)-2-(2,2-difluoroethyl)-3-methyl-2,3,4,9-tetrahydro-1H-pyrido[3,4-b]indol-1-yl)-3,5-difluorophenyl)-2,7-diazaspiro[3.5]nonan-2-yl)acetyl)-1-oxo-1,3,5,5a,6,7,8,9-octahydro-2H-pyrazino[1′,2′:4,5][1,4]oxazino[2,3-e]isoindol-2-yl)piperidine-2,6-dione]: the IC50 in test [1] was less than 0.001 µM. Also, the DC50 at ER lay in the range of 0.01 to 0.1 µM.

Turning to `C[C@@H]1Cc2c([nH]c3ccccc23)[C@@H](c2cnc(N3CC4(CC(CN5CCN6c7ccc8c(c7OC[C@H]6C5)CN(C5CCC(=O)NC5=O)C8=O)C4)C3)nc2)N1CC(C)(F)F` (stereo partly drawn) [Compound B178, 3-((R)-7-((2-(5-((1R,3R)-2-(2,2-difluoropropyl)-3-methyl-2,3,4,9-tetrahydro-1H-pyrido[3,4-b]indol-1-yl)pyrimidin-2-yl)-2-azaspiro[3.3]heptan-6-yl)methyl)-1-oxo-1,3,5,5a,6,7,8,9-octahydro-2H-pyrazino[1′,2′:4,5][1,4]oxazino[2,3-e]isoindol-2-yl)piperidine-2,6-dione], the IC50 in test [1] lay in the range of 0.001 to 0.01 µM. In addition, the DC50 at ER lay within 0.01 to 0.1 µM.

With `C[C@@H]1Cc2c([nH]c3ccccc23)[C@@H](c2cnc(N3CC4(CC(CN5CCN6c7ccc8c(c7OC[C@H]6C5)CN(C5CCC(=O)NC5=O)C8=O)C4)C3)nc2)N1CC(F)F` (stereo partly drawn) [Compound B179, 3-((R)-7-((2-(5-((1R,3R)-2-(2,2-difluoroethyl)-3-methyl-2,3,4,9-tetrahydro-1H-pyrido[3,4-b]indol-1-yl)pyrimidin-2-yl)-2-azaspiro[3.3]heptan-6-yl)methyl)-1-oxo-1,3,5,5a,6,7,8,9-octahydro-2H-pyrazino[1′,2′:4,5][1,4]oxazino[2,3-e]isoindol-2-yl)piperidine-2,6-dione], the IC50 in test [1] is more than 0.01 µM. Also, at ER, the DC50 lay in the range of 0.01 to 0.1 µM.

In the case of `C[C@@H]1Cc2c([nH]c3ccccc23)[C@@H](c2cnc(N3CCC4(CC3)CC(CN3CCN5c6ccc7c(c6OC[C@H]5C3)CN(C3CCC(=O)NC3=O)C7=O)C4)nc2)N1CC(C)(C)F` (stereo partly drawn) [Compound B180, 3-((R)-7-((7-(5-((1R,3R)-2-(2-fluoro-2-methylpropyl)-3-methyl-2,3,4,9-tetrahydro-1H-pyrido[3,4-b]indol-1-yl)pyrimidin-2-yl)-7-azaspiro[3.5]nonan-2-yl)methyl)-1-oxo-1,3,5,5a,6,7,8,9-octahydro-2H-pyrazino[1′,2′:4,5][1,4]oxazino[2,3-e]isoindol-2-yl)piperidine-2,6-dione], the IC50 in test [1] is 0.001 to 0.01 µM. Besides, on ER, the half-maximal degradation concentration (DC50) was less than 0.01 µM.

Take `C[C@@H]1Cc2c([nH]c3ccccc23)[C@@H](c2cnc(N3CCC4(CC3)CC(CN3CCN5c6ccc7c(c6OC[C@H]5C3)CN(C3CCC(=O)NC3=O)C7=O)C4)nc2)N1CC(F)F` (stereo partly drawn) [Compound B181, 3-((R)-7-((7-(5-((1R,3R)-2-(2,2-difluoroethyl)-3-methyl-2,3,4,9-tetrahydro-1H-pyrido[3,4-b]indol-1-yl)pyrimidin-2-yl)-7-azaspiro[3.5]nonan-2-yl)methyl)-1-oxo-1,3,5,5a,6,7,8,9-octahydro-2H-pyrazino[1′,2′:4,5][1,4]oxazino[2,3-e]isoindol-2-yl)piperidine-2,6-dione]: in test [1], the IC50 was less than 0.001 µM. Moreover, the DC50 at ER is less than 0.01 µM.

Turning to `C[C@@H]1Cc2c([nH]c3ccccc23)[C@@H](c2cnc(N3CC4(CCC(CN5CCN6c7ccc8c(c7OC[C@H]6C5)CN(C5CCC(=O)NC5=O)C8=O)CC4)C3)nc2)N1CC(C)(C)F` (stereo partly drawn) [Compound B182, 3-((R)-7-((2-(5-((1R,3R)-2-(2-fluoro-2-methylpropyl)-3-methyl-2,3,4,9-tetrahydro-1H-pyrido[3,4-b]indol-1-yl)pyrimidin-2-yl)-2-azaspiro[3.5]nonan-7-yl)methyl)-1-oxo-1,3,5,5a,6,7,8,9-octahydro-2H-pyrazino[1′,2′:4,5][1,4]oxazino[2,3-e]isoindol-2-yl)piperidine-2,6-dione], in test [1], the IC50 is 0.001 to 0.01 µM. Also, the DC50 at ER was less than 0.01 µM.

By IC50 is commonly meant the concentration needed to halve the response being measured. As a reminder, the DC50 is the concentration giving 50% degradation.

The record behind these values is patent US20260007681A1, “INDOLE DERIVATIVES AS ESTROGEN RECEPTOR DEGRADERS” (REGENTS OF THE UNIVERSITY OF MICHIGAN, priority 2022, published 2026).
